Assay results: ChEMBL document CHEMBL1909046, “DrugMatrix in vitro pharmacology data”

How the values were obtained:
Cathepsin G = biological target: T1, Cathepsin G (Homo sapiens, UniProt P08311); format: tissue-based; settings: neutrophil;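 note: inhibition of Cathepsin G enzyme activity, tested on an AMC-conjugated peptide substrate; in other assays of this panel Not Active means under 50% inhibition at 10 µM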
T1 sequence (P08311 whole entry): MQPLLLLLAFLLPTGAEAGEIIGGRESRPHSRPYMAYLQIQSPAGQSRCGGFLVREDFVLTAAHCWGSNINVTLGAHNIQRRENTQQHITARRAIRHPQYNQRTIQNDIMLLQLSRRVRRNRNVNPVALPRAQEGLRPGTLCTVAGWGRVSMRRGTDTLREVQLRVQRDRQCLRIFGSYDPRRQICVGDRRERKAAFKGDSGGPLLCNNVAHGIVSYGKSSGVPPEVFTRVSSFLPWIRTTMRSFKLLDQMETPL

Endothelin-1 receptor = biological target: T2, Endothelin-1 receptor (Homo sapiens, UniProt P25101); format: cell membranes, Membrane; settings: cho-k1; note: in other assays of this panel Not Active means under 50% inhibition at 10 µM
T2 sequence (P25101 whole entry): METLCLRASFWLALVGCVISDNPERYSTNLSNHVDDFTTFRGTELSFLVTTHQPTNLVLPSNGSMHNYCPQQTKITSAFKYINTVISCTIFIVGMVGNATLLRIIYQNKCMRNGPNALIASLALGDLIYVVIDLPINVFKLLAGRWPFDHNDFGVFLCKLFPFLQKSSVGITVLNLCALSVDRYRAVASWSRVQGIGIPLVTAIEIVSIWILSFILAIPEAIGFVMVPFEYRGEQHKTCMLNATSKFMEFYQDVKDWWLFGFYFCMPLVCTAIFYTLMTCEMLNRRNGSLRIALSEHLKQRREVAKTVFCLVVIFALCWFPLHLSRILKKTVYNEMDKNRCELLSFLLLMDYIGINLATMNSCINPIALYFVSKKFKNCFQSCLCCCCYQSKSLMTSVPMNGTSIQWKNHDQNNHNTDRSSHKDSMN

[1] = biological target: Beta-1 adrenergic receptor (Homo sapiens, UniProt P08588); test: DRUGMATRIX: Adrenergic beta1 radioligand binding (ligand: [125I] Cyanopindolol); format: cell membranes, CHO-K1, Membrane; settings: cho-k1; Not Active = under 50% inhibition at 10 µM
Histamine H2 receptor = Histamine H2 receptor (Homo sapiens, UniProt P25021); format: cell membranes, CHO-K1, Membrane; settings: cho-k1; note: in other assays of this panel Not Active means under 50% inhibition at 10 µM
D(3) dopamine receptor = D(3) dopamine receptor (Homo sapiens, UniProt P35462); test: DRUGMATRIX: Dopamine D3 radioligand binding (ligand: [3H] Spiperone); format: cell membranes, CHO, Membrane; settings: cho
[2] = biological target: C-C chemokine receptor type 2 (Homo sapiens, UniProt P41597); format: cell membranes, Membrane; settings: cho-k1; note: in other assays of this panel Not Active means under 50% inhibition at 10 µM
[3] = DRUGMATRIX: Tumor Necrosis Factor (TNF), Non-Selective radioligand binding (ligand: [125I] TNF-alpha); format: cell membranes, Membrane; settings: u-937; Not Active = under 50% inhibition at 10 µM

D(3) dopamine receptor, sequence (P35462 whole entry): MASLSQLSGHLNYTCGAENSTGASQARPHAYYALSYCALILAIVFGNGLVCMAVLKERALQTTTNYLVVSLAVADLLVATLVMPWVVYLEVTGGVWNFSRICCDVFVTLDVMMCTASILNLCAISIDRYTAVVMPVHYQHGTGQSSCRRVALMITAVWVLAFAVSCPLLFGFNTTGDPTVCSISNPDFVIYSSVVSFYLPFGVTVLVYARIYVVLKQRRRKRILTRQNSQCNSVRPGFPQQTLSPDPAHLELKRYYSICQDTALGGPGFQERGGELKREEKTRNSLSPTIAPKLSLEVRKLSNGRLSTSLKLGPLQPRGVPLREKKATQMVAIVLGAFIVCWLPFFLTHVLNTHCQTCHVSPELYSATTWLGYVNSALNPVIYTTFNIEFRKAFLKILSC
C-C chemokine receptor type 2, sequence (P41597 whole entry): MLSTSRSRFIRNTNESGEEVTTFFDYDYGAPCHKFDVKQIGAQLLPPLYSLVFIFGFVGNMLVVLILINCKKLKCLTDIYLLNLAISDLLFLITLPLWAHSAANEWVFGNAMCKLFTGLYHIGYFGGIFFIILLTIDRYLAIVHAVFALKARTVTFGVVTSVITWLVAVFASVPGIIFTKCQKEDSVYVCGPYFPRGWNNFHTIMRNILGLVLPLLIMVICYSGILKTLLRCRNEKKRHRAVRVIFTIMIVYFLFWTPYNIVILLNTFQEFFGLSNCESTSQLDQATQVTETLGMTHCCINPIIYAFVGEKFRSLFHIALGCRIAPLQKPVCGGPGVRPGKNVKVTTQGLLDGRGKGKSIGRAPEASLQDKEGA
Beta-1 adrenergic receptor, sequence (P08588 whole entry): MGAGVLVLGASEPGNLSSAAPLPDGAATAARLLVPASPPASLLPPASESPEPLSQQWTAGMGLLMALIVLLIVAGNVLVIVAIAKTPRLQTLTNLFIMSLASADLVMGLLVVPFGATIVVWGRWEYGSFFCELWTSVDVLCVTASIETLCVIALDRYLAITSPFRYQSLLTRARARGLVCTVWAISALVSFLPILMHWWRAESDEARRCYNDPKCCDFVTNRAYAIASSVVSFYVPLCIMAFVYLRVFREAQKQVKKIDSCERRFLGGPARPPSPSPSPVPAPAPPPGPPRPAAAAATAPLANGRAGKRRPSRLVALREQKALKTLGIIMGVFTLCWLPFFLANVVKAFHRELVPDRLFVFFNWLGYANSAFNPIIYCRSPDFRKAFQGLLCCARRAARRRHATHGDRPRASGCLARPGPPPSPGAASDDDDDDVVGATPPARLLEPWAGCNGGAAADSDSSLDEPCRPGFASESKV
Histamine H2 receptor, sequence (P25021 whole entry): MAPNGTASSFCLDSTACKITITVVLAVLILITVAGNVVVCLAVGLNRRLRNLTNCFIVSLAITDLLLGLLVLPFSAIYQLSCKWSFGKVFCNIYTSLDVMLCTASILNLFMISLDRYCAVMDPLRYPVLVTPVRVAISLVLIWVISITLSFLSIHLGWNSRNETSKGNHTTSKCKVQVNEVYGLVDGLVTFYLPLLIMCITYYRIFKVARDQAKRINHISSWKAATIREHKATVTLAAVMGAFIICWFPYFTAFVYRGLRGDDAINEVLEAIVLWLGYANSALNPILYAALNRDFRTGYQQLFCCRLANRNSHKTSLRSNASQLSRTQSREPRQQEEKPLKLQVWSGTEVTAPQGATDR

MANGANESE CHLORIDE ANHYDROUS
Not Active: IC50 (Cathepsin G) | Ki (Cathepsin G) | IC50 (Endothelin-1 receptor) | Ki (Endothelin-1 receptor) | IC50 [1] | Ki [1] | IC50 (Histamine H2 receptor) | Ki (Histamine H2 receptor) | IC50 (D(3) dopamine receptor) | Ki (D(3) dopamine receptor) | IC50 [2] | Ki [2] | IC50 [3] | Ki [3]

SODIUM ORTHOVANAD
Not Active: IC50 (Cathepsin G) | Ki (Cathepsin G) | IC50 (Endothelin-1 receptor) | Ki (Endothelin-1 receptor) | IC50 [1] | Ki [1] | IC50 (Histamine H2 receptor) | Ki (Histamine H2 receptor) | IC50 (D(3) dopamine receptor) | Ki (D(3) dopamine receptor) | IC50 [2] | Ki [2] | IC50 [3] | Ki [3]
